Laboratory results reported in patent US20230225324A1, “Synergistic Pesticidal Composition Against Sucking Pests Complex” (priority 2020, published 2023).

Experiments:
Jassids = experiment: Synergistic insecticidal effect of the combination, mortality of Jassids (Table 3); format: in vivo
Excerpt: (§1) Evaluation of the synergistic insecticidal effect of the composition comprising Diafenthiuron, Pyriproxyfen and an insecticide Dinotefuran can be established by using any synergistic insecticidal composition prepared by the process described in the above examples. For these evaluations one or more of the synergistic insecticidal compositions prepared in the examples are used here.
(§2) Synergism can be calculated by using the Colby's method i.e. the expected (or predicted) response of the combination is calculated by taking the product of the observed response for each individual component of the combination when applied alone divided by 100 and subtracting this value from the sum of observed response for each component when applied alone. Synergism of the combination is then determined by comparing the observed response of the combination to the expected (or predicted) response as calculated from the observed response of each individual component alone. If the observed response of the combination is greater than the expected (or predicted) response then the combination is said to be synergistic and falls within the definition of synergistic effect. (Colby, S. R., Weeds, 1967(15), p. 20-22).

White fly = experiment: Synergistic insecticidal effect of the combination, mortality of White fly (Table 2); format: in vivo
Excerpt: as §1, §2

SMILES: CC(COc1ccc(Oc2ccccc2)cc1)Oc1ccccn1 (racemic) [Pyriproxyfen, 4-phenoxyphenyl (RS)-2-(2-pyridyloxy)propyl ether]
- Observed Mortality % (Jassids; Pyriproxyfen 72 ppm): 21.70%
- Observed Mortality % (Jassids; Pyriproxyfen 96 ppm): 29.20%
- Observed Mortality % (Jassids; Pyriproxyfen 120 ppm): 35.50%
- Observed Mortality % (Jassids; Pyriproxyfen 144 ppm): 37.90%
- Observed Mortality % (White fly; Pyriproxyfen 72 ppm): 30.70%
- Observed Mortality % (White fly; Pyriproxyfen 96 ppm): 38.10%
- Observed Mortality % (White fly; Pyriproxyfen 120 ppm): 43.70%
- Observed Mortality % (White fly; Pyriproxyfen 144 ppm): 46.60%

SMILES: CC(C)c1cc(Oc2ccccc2)cc(C(C)C)c1NC(=S)NC(C)(C)C [Diafenthiuron, 1-tert-butyl-3-(2,6-di-isopropyl-4-phenoxyphenyl)thiourea]
- Observed Mortality % (Jassids; Diafenthiuron 120 ppm): 28.90%
- Observed Mortality % (Jassids; Diafenthiuron 240 ppm): 42.00%
- Observed Mortality % (Jassids; Diafenthiuron 360 ppm): 48.50%
- Observed Mortality % (Jassids; Diafenthiuron 480 ppm): 57.40%
- Observed Mortality % (White fly; Diafenthiuron 120 ppm): 38.40%
- Observed Mortality % (White fly; Diafenthiuron 240 ppm): 48.50%
- Observed Mortality % (White fly; Diafenthiuron 360 ppm): 57.30%
- Observed Mortality % (White fly; Diafenthiuron 480 ppm): 61.80%

SMILES: CN/C(=N/CC1CCOC1)N[N+](=O)[O-] (stereo not drawn) [Dinotefuran, 2-methyl-1-nitro-3-[(tetrahydro-3-furanyl)methyl]guanidine]
- Observed Mortality % (Jassids; Dinotefuran 45 ppm): 65.60%
- Observed Mortality % (Jassids; Dinotefuran 60 ppm): 73.40%
- Observed Mortality % (Jassids; Dinotefuran 75 ppm): 79.00%
- Observed Mortality % (Jassids; Dinotefuran 90 ppm): 83.80%
- Observed Mortality % (White fly; Dinotefuran 45 ppm): 35.10%
- Observed Mortality % (White fly; Dinotefuran 60 ppm): 45.50%
- Observed Mortality % (White fly; Dinotefuran 75 ppm): 52.00%
- Observed Mortality % (White fly; Dinotefuran 90 ppm): 61.40%
